This is an account of results in patent US20240383870A1, “HETEROCYCLIC ALDEHYDE TRAPPING COMPOUNDS AND USES THEREOF” (Aldeyra Therapeutics, Inc., priority 2021, published 2024).

Type in all cases: in vivo
Assay [1] relates to leukemia inhibitory factor (LIF). In words: Acute LPS-induced sepsis in C57BL/6 mice: leukemia inhibitory factor (LIF) cytokine detection assay. Conditions: 75 mpk PO; LPS-challenged mice, plasma at 6.5 h; unpaired t-test vs vehicle. An excerpt:
FIG. 21 is a graph showing the results of a leukemia inhibitory factor (LIF) cytokine detection assay in samples collected from mouse subjects after administration of compounds of the present disclosure. LIF is an interleukin 6 class cytokine that affects cell growth by inhibiting differentiation.
(§1) The primary objective of this study was to collect plasma samples of lipopolysaccharide (LPS) challenged C57BL/6 mice after dose of test compounds to provide a cytokine profile as impacted by prophylactic treatments. This study models acute sepsis, which is a systemic inflammatory syndrome initiated by Gram-negative and Gram-positive bacteria and fungi which infect the lungs, abdomen, bloodstream, and renal or genitourinary tracts. Sepsis patients ultimately die of multiorgan failure which is caused by extensive tissue hypo-oxygenation due to ongoing microvascular leakage, disseminated intravascular coagulation, compromised energy production, and metabolic alterations. Sepsis is characterized by an early systemic inflammatory response phase featuring symptoms, such as tachycardia, fever, hyperventilation, and activation of the complement and coagulation cascades. However, it is now appreciated that a compensatory anti-inflammatory response phase follows, characterized by neuroendocrine-mediated immunosuppression. Since these processes are the result of interaction between cells of inflammation and organs, investigation of the treatment of this syndrome requires the use of intact animal models. The use of ten mice per group allows useful statistical modelling of the results.
(§2) For the data shown in Table 2A, 103 mice (female, 18-22 gram, C57BL/6) were purchased from ENVIGO. The mice were housed in 20 cages of 5 mice per cage with 1 cage of 3 mice as extra. The cages had filter tops and autoclaved bedding, and the animals were placed in quarantine with daily inspection. The treatment groups are detailed in Table 2A below. 10 mice were included in each group. The mice were dosed by oral gavage (PO) at 10 ml/kg as per the table below. MC=methyl cellulose.
(§3) For the data shown in Table 2B, 185 mice (female, 18-22 gram, C57BL/6) were purchased from ENVIGO. The mice were housed in 37 cages of 5 mice per cage. The cages had filter tops and autoclaved bedding, and the animals were placed in quarantine with daily inspection. The treatment groups are detailed in Table 2B below. 10 mice were included in each group. The mice were dosed by oral gavage (P0) at 10 ml/kg as per the table below. MC=methyl cellulose.
(§4) At T=0 h, the mice were dosed with one of the test compounds as described in the above table.
(§5) At T=0.5 h, the mice were injected IP with 1.5 mg/kg […] (Sigma).
(§6) At T=6.5 h, all mice were anesthetized and exsanguinated into pre-chilled EDTA-treated tubes. The blood was processed to plasma which was stored in labeled 0.5 polypropylene snap-cap tubes (0.5 mL Eppendorf Safe-Lock Tubes (Fisher Scientific) at −80° C.
(§7) Preparation of vehicle: 1.0 gram of methyl cellulose (Sigma) was dissolved in 200 mL of water (USP purified) to make a solution of 0.5% methyl cellulose in water. Preparation of LPS solution: 6 mg of LPS (from Escherichia Coli 055:B5, Cat #L2880, Sigma Lot #057m4013) was dissolved in 20 ml of saline to give a LPS solution of 0.3 mg/ml. All mice were injected with 5 ml/kg (1.5 mg/kg) at the scheduled time by intraperitoneal injection.
(§8) A 32-plex cytokine panel was obtained from Eve Technologies. Each cytokine was assessed based against a 7 point curve range in duplicate. […]

A further assay has as its system IL-10. Put plainly: Acute LPS-induced sepsis in C57BL/6 mice: IL-10 cytokine detection assay. Conditions: LPS-challenged mice, plasma at 6.5 h, unpaired t-test vs vehicle.
A further assay has as its system IL-12(p70). Put plainly: Acute LPS-induced sepsis in C57BL/6 mice: IL-12(p70) cytokine detection assay. The settings on record: LPS-challenged mice, plasma at 6.5 h, unpaired t-test vs vehicle.
Text: FIG. 16 is a graph showing the results of an IL-12(p70) cytokine detection assay in samples collected from mouse subjects after administration of compounds of the present disclosure.
as §1
(§9) For the data shown in Table 2A, 103 mice (female, 18-22 gram, C57BL/6) were purchased from ENVIGO. The mice were housed in 20 cages of 5 mice per cage with 1 cage of 3 mice as extra. The cages had filter tops and autoclaved bedding, and the animals were placed in quarantine with daily inspection. The treatment groups are detailed in Table 2A below. 10 mice were included in each group. […] MC=methyl cellulose.
as §3, §4, §5, §6, §7
A 32-plex cytokine panel was obtained from Eve Technologies. Each cytokine was assessed based against a 7 point curve range in duplicate. The average of the two replicate analyses was used for statistics. Unpaired t-tests were performed using Excel™ contrasting vehicle against each treatment group. One star indicates P<0.05. […]

A further assay concerns M-CSF (CSF1). Put plainly: Acute LPS-induced sepsis in C57BL/6 mice: M-CSF (CSF1) cytokine detection assay. The settings on record: LPS-challenged mice, plasma at 6.5 h, unpaired t-test vs vehicle.
Text: FIG. 24 is a graph showing the results of an M-CSF (CSF1) cytokine detection assay in samples collected from mouse subjects after administration of compounds of the present disclosure. M-CSF causes hematopoietic stem cells to differentiate into macrophages.
as §1, §2, §3, §4, §5, §6, §7
(§10) A 32-plex cytokine panel was obtained from Eve Technologies. Each cytokine was assessed based against a 7 point curve range in duplicate. The average of the two replicate analyses was used for statistics. Unpaired t-tests were performed using Excel™ contrasting vehicle against each treatment group. One star indicates P<0.05. Two stars indicates P<0.01. Three stars indicates P<0.001. Four stars indicates P<0.0001. Most, but not all, statistically significant results are indicated with star(s).

The subject of another assay is IL-17. Put plainly: Acute LPS-induced sepsis in C57BL/6 mice: IL-17 cytokine detection assay. The settings on record: 75 mpk PO; LPS-challenged mice, plasma at 6.5 h; unpaired t-test vs vehicle.
Text: FIG. 19 is a graph showing the results of an IL-17 cytokine detection assay in samples collected from mouse subjects after administration of compounds of the present disclosure.
as §1, §9, §3, §4, §5
(§11) At T=6.5 h, all mice were anesthetized and exsanguinated into pre-chilled EDTA-treated tubes. […]
as §8

The next assay deals with IFNγ. Put plainly: Acute LPS-induced sepsis in C57BL/6 mice: IFNγ cytokine detection assay. Conditions: 75 mpk PO; LPS-challenged mice, plasma at 6.5 h; unpaired t-test vs vehicle.
The next assay deals with IL-13. In words: Acute LPS-induced sepsis in C57BL/6 mice: IL-13 cytokine detection assay. The settings on record: LPS-challenged mice, plasma at 6.5 h, unpaired t-test vs vehicle.
Text: FIG. 17 is a graph showing the results of an IL-13 cytokine detection assay in samples collected from mouse subjects after administration of compounds of the present disclosure.
as §1, §2, §3, §4, §5, §6, §7
A 32-plex cytokine panel was obtained from Eve Technologies. Each cytokine was assessed based against a 7 point curve range in duplicate. The average of the two replicate analyses was used for statistics. […]

In the next assay the test system is MCP-1(CCL2). In words: Acute LPS-induced sepsis in C57BL/6 mice: MCP-1(CCL2) cytokine detection assay. The settings on record: 200 mpk PO; LPS-challenged mice, plasma at 6.5 h; unpaired t-test vs vehicle.
A further assay concerns KC. In words: Acute LPS-induced sepsis in C57BL/6 mice: KC cytokine detection assay. Conditions: LPS-challenged mice, plasma at 6.5 h, unpaired t-test vs vehicle.
Text: FIG. 20 is a graph showing the results of a KC cytokine detection assay in samples collected from mouse subjects after administration of compounds of the present disclosure.
as §1, §2, §3, §4, §5, §6, §7, §10

A further assay concerns MIP2(CXCL2). Put plainly: Acute LPS-induced sepsis in C57BL/6 mice: MIP2(CXCL2) cytokine detection assay. The settings on record: 75 mpk PO; LPS-challenged mice, plasma at 6.5 h; unpaired t-test vs vehicle.
Text: FIG. 27 is a graph showing the results of a MIP2(CXCL2) cytokine detection assay in samples collected from mouse subjects after administration of compounds of the present disclosure.
as §1, §9, §3, §4, §5, §11, §8

For the next assay, the system named is IL-3. In words: Acute LPS-induced sepsis in C57BL/6 mice: IL-3 cytokine detection assay. The settings on record: LPS-challenged mice, plasma at 6.5 h, unpaired t-test vs vehicle.
The test system of the next assay is IL-9. In words: Acute LPS-induced sepsis in C57BL/6 mice: IL-9 cytokine detection assay. Conditions: 125 mpk PO; LPS-challenged mice, plasma at 6.5 h; unpaired t-test vs vehicle.
Text: FIG. 13 is a graph showing the results of an IL-9 cytokine detection assay in samples collected from mouse subjects after administration of compounds of the present disclosure.
as §1
For the data shown in Table 2A, 103 mice (female, 18-22 gram, C57BL/6) were purchased from ENVIGO. The mice were housed in 20 cages of 5 mice per cage with 1 cage of 3 mice as extra. The cages had filter tops and autoclaved bedding, and the animals were placed in quarantine with daily inspection. The treatment groups are detailed in Table 2A below. 10 mice were included in each group. The mice were dosed by oral gavage (PO) at 10 ml/kg as per the table below. MC=methyl cellulose. […]
as §8

Take `Cc1cnc(C(C)(C)O)c(N)c1` [Compound I-32, 2-(3-Amino-5-methylpyridin-2-yl) propan-2-ol]: the “LIF: significant cytokine change vs. vehicle” value in assay [1] is recorded as “**** (Four stars indicates P<0.0001)”. In addition, the “IL-10: significant cytokine change vs. vehicle” value in the assay with IL-10 (75 mpk PO) is “* (One star indicates P<0.05)”. Moreover, the “IL-12 (p70): significant cytokine change vs. vehicle” value in the assay on IL-12(p70) (75 mpk PO) is “* (One star indicates P<0.05)”. Also, the “M-CSF: significant cytokine change vs. vehicle” value in the assay on M-CSF (CSF1) (75 mpk PO) was “**** (Four stars indicates P<0.0001)”. The “IL-17: significant cytokine change vs. vehicle” value in the assay with IL-17 is given as “* (One star indicates P<0.05)”. The “IFNy: significant cytokine change vs. vehicle” value in the assay on IFNγ is given as “**** (Four stars indicates P<0.0001)”. Further, the “IL-13: significant cytokine change vs. vehicle” value with IL-13 (75 mpk PO) is reported as “*** (Three stars indicates P<0.001)”.

Consider `CC(C)(O)c1cc(Cl)c(Cl)cc1N` [Compound I-28, 2-(2-Amino-4,5-dichlorophenyl) propan-2-ol], for which the “IL-10: significant cytokine change vs. vehicle” value in the assay with IL-10 (200 mpk PO) was “* (One star indicates P<0.05)”. In addition, the “MCP-1: significant cytokine change vs. vehicle” value with MCP-1(CCL2) is given as “* (One star indicates P<0.05)”. The “IL-12 (p70): significant cytokine change vs. vehicle” value with IL-12(p70) (200 mpk PO) was “* (One star indicates P<0.05)”. For the same compound, the “KC: significant cytokine change vs. vehicle” value in the assay with KC (200 mpk PO) is recorded as “*** (Three stars indicates P<0.001)”. Besides, in the assay on IL-13 (200 mpk PO), the “IL-13: significant cytokine change vs. vehicle” value is on record as “* (One star indicates P<0.05)”.

Turning to `CC(C)(O)c1ncc(C(F)(F)F)cc1N` [Compound I-24, 2-(3-Amino-5-(trifluoromethyl)pyridin-2-yl) propan-2-ol], the “M-CSF: significant cytokine change vs. vehicle” value in the assay on M-CSF (CSF1) (200 mpk PO) is “* (One star indicates P<0.05)”.

Turning to `CC(O)(c1ccc(C(F)(F)F)cc1N)C(F)(F)F` (centres unmarked) [Compound I-33, 2-(2-Amino-4-(trifluoromethyl)phenyl)-1,1,1-trifluoropropan-2-ol], in assay [1], the “LIF: significant cytokine change vs. vehicle” value is recorded as “**** (Four stars indicates P<0.0001)”. In addition, the “IL-12 (p70): significant cytokine change vs. vehicle” value in the assay on IL-12(p70) (75 mpk PO) is reported as “* (One star indicates P<0.05)”. Moreover, the “MIP-2: significant cytokine change vs. vehicle” value in the assay with MIP2(CXCL2) is recorded as “** (Two stars indicates P<0.01)”. Moreover, the “KC: significant cytokine change vs. vehicle” value with KC (75 mpk PO) was “** (Two stars indicates P<0.01)”. Besides, in the assay with IL-3 (75 mpk PO), the “IL-3: significant cytokine change vs. vehicle” value is given as “** (Two stars indicates P<0.01)”. Moreover, the “IL-13: significant cytokine change vs. vehicle” value in the assay with IL-13 (75 mpk PO) is reported as “** (Two stars indicates P<0.01)”.

In the case of `CC(C)(O)c1cc2c(cc1N)OCCO2` [Compound I-26, 2-(7-Amino-2,3-dihydrobenzo[b] [1,4]dioxin-6-yl) propan-2-ol], the “IL-9: significant cytokine change vs. vehicle” value in the assay with IL-9 is reported as “* (One star indicates P<0.05)”.

`CC(C)(O)c1cc2occc2cc1N` [Compound I-22, 2-(5-Aminobenzofuran-6-yl) propan-2-ol]: in the assay with M-CSF (CSF1) (100 mpk PO), the “M-CSF: significant cytokine change vs. vehicle” value is “** (Two stars indicates P<0.01)”.

Turning to `CC(C)(O)c1cc(F)c(F)cc1N` [Compound I-27, 2-(2-Amino-4,5-difluorophenyl) propan-2-ol], in the assay on KC (200 mpk PO), the “KC: significant cytokine change vs. vehicle” value is “* (One star indicates P<0.05)”.

Turning to `CC(O)(c1sc2ccc(C(F)(F)F)cc2c1N)C(F)(F)F` (centres unmarked) [Compound I-16, 2-(3-Amino-5-(trifluoromethyl)benzo[b]thiophen-2-yl)-1,1,1-trifluoropropan-2-ol], in the assay on IL-10 (200 mpk PO), the “IL-10: significant cytokine change vs. vehicle” value is “** (Two stars indicates P<0.01)”. Moreover, the “MCP-1: significant cytokine change vs. vehicle” value in the assay with MCP-1(CCL2) was “* (One star indicates P<0.05)”. For the same compound, the “IL-3: significant cytokine change vs. vehicle” value with IL-3 (200 mpk PO) was “* (One star indicates P<0.05)”. Moreover, the “M-CSF: significant cytokine change vs. vehicle” value with M-CSF (CSF1) (200 mpk PO) is “**** (Four stars indicates P<0.0001)”.
